Data as given in US11149066B2, “Thrombospondin 1-binding peptide” (DAIICHI SANKYO COMPANY, LIMITED, priority 2016, dated 2021).
Where two headings read alike, the source gives them in different places. Positions of bridges follow the written chain, without caps; N, C: chain ends. Non-standard residues stand in square brackets, D forms with d. Residues, ends and D or L forms follow the SMILES beside them. 2Nal = N[C@@H](Cc1ccc2ccccc2c1)C(=O)O; Nle = CCCC[C@H](N)C(=O)O

How the values were obtained:
C57BL/6 mice = assay: Blood flow improvement tests (femoral artery/vein ligation and excision, laser Doppler); format: in vivo; conditions: after 7 days of surgery; for % change (vs. vehicle): blood flow ratio ischemia/nonischemia; for %, ischemia/nonischemia: blood flow ratio of ischemic limb to non-ischemic limb, laser Doppler
Description: (Test Example 3) Blood Flow Improvement Tests
Seven to nine-week-old male C57BL/6 mice were purchased from Charles River Laboratories Japan Inc., and acclimated over one week by feeding with a FR-2 solid diet (produced by Funabashi Farm Co., Ltd.). The rearing facility switched between light and dark modes in a 12-hour cycle with light turning on at 7 a.m and turning off at 7 p.m. Under isofluorane inhalation anaesthesia, the left thighs of the mice were dissected, and the superficial femoral arteries and veins (from just below the deep femoral arteries to the popliteal artery and vein) were ligated and excised. After animal models were made, the test substances (Compounds 24, 28, 40 to 45, and 58) were each dissolved in a solution of 20 mM lactic acid and 5% (w/v) Lutrol, and intraperitoneally injected into mice once daily.
(Blood Flow Improvement Test 1)
Compound 24 (10 mg/kg)-treated group
(Blood Flow Improvement Test 2)
Compound 28 (10 mg/kg)-treated group
(Blood Flow Improvement Test 3)
Compound 40 (10 mg/kg)-treated group
Compound 41 (10 mg/kg)-treated group
(Blood Flow Improvement Test 4)
Compound 42 (10 mg/kg)-treated group
Compound 43 (10 mg/kg)-treated group
Compound 44 (10 mg/kg)-treated group
Compound 45 (10 mg/kg)-treated group
(Blood Flow Improvement Test 5)
Compound 58 (10 mg/kg)-treated group
Blood flows were measured in ischemic (left) and non-ischemic (right) limbs using a laser Doppler perfusion imager (LDPI; PIM III, Perimed, Inc.). Blood flow values were evaluated by the ratio of ischemic limb flow to non-ischemic limb flow.
Blood flow values from the mice were the lowest immediately after surgery and then gradually recovered. All of the test substances investigated in the animal models of this study improved blood flow recovery after surgery as compared to vehicle treatment. After 7 days of surgery, the blood flows in the test substance-treated groups were higher than in the vehicle-treated mice.

human TSP1 = human TSP1 (Homo sapiens, UniProt P07996); assay: Cell adhesion inhibition assay (HUVEC adhesion to TSP1-coated plate); format: cell-based
Protocol: As referred to herein, the TSP1 inhibitory activity refers to the activity to inhibit one or more effects of TSP1, including angiostatic effect. The TSP1 inhibitory activity is measured by a cell adhesion inhibition assay using human TSP1 and vascular endothelial cells as described hereinbelow in the Examples section. In this assay, when the 50% inhibitory concentration (IC5O) of a test substance is 200 nM or less, the test substance is determined to have TSP1 inhibitory activity.
(Test Example 1) Cell Adhesion Inhibition Assay
I. Materials and Reagents
96 well Non-treated White with clear bottom (Coster, 3632)
BrightMax adhesive sealing films (EXCEL Scientific, WT50)
Proteosave®SS 15 mL (Sumitomo Bakelite, MS-52150)
Thrombospondin human platelet (Calbiochem, 605225)
EGM-2 MV (Lonza, CC-3202): for HUVEC passaging
Collagen coated dish (IWAKI, 4020-010): for HUVEC passaging
Lipidure®-BL802 (NOF Corporation), 5% solution
Albumin solution (35%) fraction V from Bovine (Sigma, A7979)
CellTiter-Glo (Promega, G7572)
Thrombospondin 1 vial (25 μg) was dissolved in TBS (+2 mM CaCl2; the same shall apply hereunder) to make a 200 μg/mL solution, which was diluted with TBS to a concentration of 10 μg/mL in Proteosave® 15 mL tube. The 10 μg/mL solution was dispensed into a 96 well plate at a volume of 50 μL/well (no reservoir was used since the protein easily adsorbs on it), and the plate was left to stand at 4° C. overnight.
Lipidure® was diluted 10-fold with TBS to make a 0.5% solution. After a buffer was discarded from the plate that had been coated at the step of <Plate coat> as described above, the 0.5% solution was dispensed into all wells to be used at a volume of 100 μL/well, and the plate was left to stand at room temperature for 1 hour.
A 0.2 μM solution of each sample was prepared using a dilution buffer (DMEM+0.5% BSA). 2 μL of the 0.2 μM solution was diluted with 500 μL, of dilution buffer to prepare a diluted sample. As a vehicle control, DMSO was diluted in the same way as the samples.
A blocking solution was discarded from the plate that had been treated at the step of <Plate blocking> as described above, and the plate was washed three times with 150 μL/well of TBS. The washing solution used for the third washing was completely sucked out by an aspirator, and the diluted sample was dispensed into the plate at a volume of 50 μL/well. Then, the plate was left to stand at room temperature for 15 to 30 minutes.
To maintain HUVECs, EGM2-MV and a collagen coated dish were used (the cells were ceased to be used after 10th or 1 lth passage since the cell proliferation rate declined at this stage). The cells were dispersed with 0.05% Trypsin/EDTA, harvested in DMEM/0.5% BSA, and centrifuged at 1000 rpm for 3 minutes. After removal of supernatant, the cells were washed once with a DMEM buffer. The cells were resuspended in a DMEM buffer, counted for cell number, and diluted to 10000 cells/50 μL. The cell suspension was dispensed at a volume of 50 μL/well into the plate into which the sample had been dispensed, mixed gently, and incubated at 37° C. for 2.5 hours.
After cell adhesion was confirmed, the culture medium was completely removed by an aspirator, and 100 μL/well of DMEM/0.5% BSA was gently dispensed. Then, DMEM/0.5% BSA was completely removed by an aspirator, and 50 μL/well of DMEM/0.5% BSA was dispensed. After a white seal was applied to the bottom of the plate, 50 μL/well of CellTiter-Glo® was dispensed, and the solution was stirred for 2 minutes and left to stand at room temperature for 8 minutes. […] was detected using EnVision Xcite Multilabel Reader (produced by Perkin Elmer).
On the basis of the measured fluorescence values, the IC50 values (nM) of the different macrocyclic polypeptides for inhibition of cell adhesion were calculated.

[1] = HUVEC adhesion to TSP1-coated plate, read-out: cell adhesion inhibition (Table 4)

Sequence of human TSP1 (P07996 19-1170 limits assumed): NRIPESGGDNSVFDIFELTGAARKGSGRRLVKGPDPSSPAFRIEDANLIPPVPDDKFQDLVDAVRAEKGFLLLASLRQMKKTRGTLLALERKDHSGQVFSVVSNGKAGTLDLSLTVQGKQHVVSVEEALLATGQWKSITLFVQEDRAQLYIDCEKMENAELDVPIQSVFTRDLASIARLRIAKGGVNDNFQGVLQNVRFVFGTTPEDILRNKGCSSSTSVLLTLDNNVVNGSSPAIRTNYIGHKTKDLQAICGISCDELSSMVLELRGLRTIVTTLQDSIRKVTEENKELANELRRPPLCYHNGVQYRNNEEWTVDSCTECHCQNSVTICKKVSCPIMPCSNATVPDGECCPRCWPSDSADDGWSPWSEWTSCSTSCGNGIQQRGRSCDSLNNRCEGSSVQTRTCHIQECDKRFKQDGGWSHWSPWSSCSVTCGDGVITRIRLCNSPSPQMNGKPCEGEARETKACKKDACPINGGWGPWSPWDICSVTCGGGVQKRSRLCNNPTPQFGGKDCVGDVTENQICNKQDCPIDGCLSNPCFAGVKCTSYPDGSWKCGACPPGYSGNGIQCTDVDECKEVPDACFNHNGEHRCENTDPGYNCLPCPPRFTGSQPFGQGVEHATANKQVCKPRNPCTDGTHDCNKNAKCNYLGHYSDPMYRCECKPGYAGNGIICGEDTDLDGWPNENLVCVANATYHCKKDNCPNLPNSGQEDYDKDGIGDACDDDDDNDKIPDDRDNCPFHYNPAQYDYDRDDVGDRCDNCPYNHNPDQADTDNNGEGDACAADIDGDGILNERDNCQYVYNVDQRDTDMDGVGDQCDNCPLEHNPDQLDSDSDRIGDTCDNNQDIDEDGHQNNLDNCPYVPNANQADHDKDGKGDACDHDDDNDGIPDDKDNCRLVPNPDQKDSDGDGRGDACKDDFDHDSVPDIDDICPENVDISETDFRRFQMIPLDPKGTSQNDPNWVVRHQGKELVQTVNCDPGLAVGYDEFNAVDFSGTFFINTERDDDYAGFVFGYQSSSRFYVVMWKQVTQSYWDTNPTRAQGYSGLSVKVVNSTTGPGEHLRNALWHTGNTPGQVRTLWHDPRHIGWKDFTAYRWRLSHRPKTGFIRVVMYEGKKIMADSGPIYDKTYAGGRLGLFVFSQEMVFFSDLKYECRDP

| Compound | IC50 (human TSP1; [1]) | other results |
| --- | --- | --- |
| CC[C@H](C)[C@@H]1NC(=O)[C@H](Cc2ccc3ccccc3c2)NC(=O)CSC[C@@H](C(N)=O)NC(=O)[C@H](C(C)C)NC(=O)[C@H](Cc2c[nH]c3ccccc23)NC(=O)[C@H](CCCCN)NC(=O)[C@H](C(C)C)NC(=O)[C@H](Cc2ccc3ccccc3c2)NC(=O)[C@H](CC(N)=O)NC(=O)[C@H](CCCNC(=N)N)NC(=O)CNC(=O)[C@H](CO)NC1=O [Compound 28] ({CH2CO}-[2Nal]ISGRN[2Nal]VKWVC-NH2; thioether N-12) | – | % change (vs. vehicle) (C57BL/6 mice): 1.8%; %, ischemia/nonischemia (C57BL/6 mice): 40.79% |
| CC[C@H](C)[C@@H]1NC(=O)[C@H](Cc2ccc3ccccc3c2)NC(=O)CSC[C@@H](C(N)=O)NC(=O)[C@H](C(C)C)NC(=O)[C@H](Cc2c[nH]c3ccccc23)NC(=O)[C@H](CCCCN)NC(=O)[C@H](C(C)C)NC(=O)[C@H](Cc2c[nH]c3ccccc23)NC(=O)[C@H](CC(=O)O)NC(=O)[C@H](CCCNC(=N)N)NC(=O)CNC(=O)[C@H](CO)NC1=O [Compound 40] ({CH2CO}-[2Nal]ISGRDWVKWVC-NH2; thioether N-12) | – | IC50 (human TSP1; HUVEC adhesion to human platelet thrombospondin-coated plate, 2.5 hours, CellTiter-Glo, read-out: Cell adhesion IC50): 16.1 nM; % change (vs. vehicle) (C57BL/6 mice): 6.4%; %, ischemia/nonischemia (C57BL/6 mice): 46.53% |
| CC[C@H](C)[C@@H]1NC(=O)[C@H](Cc2ccc3ccccc3c2)NC(=O)CSC[C@@H](C(N)=O)NC(=O)[C@H](C(C)C)NC(=O)[C@H](Cc2c[nH]c3ccccc23)NC(=O)[C@H](Cc2c[nH]cn2)NC(=O)[C@H](C(C)C)NC(=O)[C@H](Cc2c[nH]c3ccccc23)NC(=O)[C@H](CC(N)=O)NC(=O)[C@H](CCCNC(=N)N)NC(=O)CNC(=O)[C@H](CO)NC1=O [Compound 41] ({CH2CO}-[2Nal]ISGRNWVHWVC-NH2; thioether N-12) | – | % change (vs. vehicle) (C57BL/6 mice): 32.7%; %, ischemia/nonischemia (C57BL/6 mice): 58.05% |
| CCCC[C@@H]1NC(=O)[C@H](Cc2c[nH]c3ccccc23)NC(=O)[C@H](CC(=O)O)NC(=O)[C@H](CCCNC(=N)N)NC(=O)CNC(=O)[C@H](CO)NC(=O)[C@H]([C@@H](C)CC)NC(=O)[C@H](Cc2ccc3ccccc3c2)NC(=O)[C@H]([C@@H](C)O)NC(=O)CSC[C@@H](C(N)=O)NC(=O)[C@H](C(C)C)NC(=O)[C@H](Cc2c[nH]c3ccccc23)NC(=O)[C@H](CCCCN)NC1=O [Compound 85] ({CH2CO}-T[2Nal]ISGRDW[Nle]KWVC-NH2; thioether N-13) | 15.5 nM | – |
| CCCC[C@@H]1NC(=O)[C@H](Cc2c[nH]c3ccccc23)NC(=O)[C@H](CC(=O)O)NC(=O)[C@H](CCCNC(=N)N)NC(=O)CNC(=O)[C@H](CO)NC(=O)[C@H]([C@@H](C)CC)NC(=O)[C@H](Cc2ccc3ccccc3c2)NC(=O)[C@H](CCC(N)=O)NC(=O)CSC[C@@H](C(N)=O)NC(=O)[C@H](C(C)C)NC(=O)[C@H](Cc2c[nH]c3ccccc23)NC(=O)[C@H](CCCCN)NC1=O [Compound 86] ({CH2CO}-Q[2Nal]ISGRDW[Nle]KWVC-NH2; thioether N-13) | 14.2 nM | – |
| CCCC[C@@H]1NC(=O)[C@H](Cc2c[nH]c3ccccc23)NC(=O)[C@H](CC(=O)O)NC(=O)[C@H](CCCNC(=N)N)NC(=O)CNC(=O)[C@H](CO)NC(=O)[C@H]([C@@H](C)CC)NC(=O)[C@H](Cc2ccc3ccccc3c2)NC(=O)[C@H](CCCCN)NC(=O)CSC[C@@H](C(N)=O)NC(=O)[C@H](C(C)C)NC(=O)[C@H](Cc2c[nH]c3ccccc23)NC(=O)[C@H](CCCCN)NC1=O [Compound 90] ({CH2CO}-K[2Nal]ISGRDW[Nle]KWVC-NH2; thioether N-13) | 17.2 nM | – |
| CCCC[C@@H]1NC(=O)[C@H](Cc2c[nH]c3ccccc23)NC(=O)[C@H](CC(=O)O)NC(=O)[C@H](CCCNC(=N)N)NC(=O)CNC(=O)[C@H](CO)NC(=O)[C@H]([C@@H](C)CC)NC(=O)[C@H](Cc2ccc3ccccc3c2)NC(=O)[C@H](Cc2c[nH]cn2)NC(=O)CSC[C@@H](C(N)=O)NC(=O)[C@H](C(C)C)NC(=O)[C@H](Cc2c[nH]c3ccccc23)NC(=O)[C@H](CCCCN)NC1=O [Compound 91] ({CH2CO}-H[2Nal]ISGRDW[Nle]KWVC-NH2; thioether N-13) | 17.1 nM | – |
| CCCC[C@@H]1NC(=O)[C@H](Cc2c[nH]c3ccccc23)NC(=O)[C@H](CC(=O)O)NC(=O)[C@H](CCCCN)NC(=O)CNC(=O)[C@H](CO)NC(=O)[C@H]([C@@H](C)CC)NC(=O)[C@H](Cc2ccc3ccccc3c2)NC(=O)[C@H](CO)NC(=O)CSC[C@@H](C(N)=O)NC(=O)[C@H](C(C)C)NC(=O)[C@H](Cc2c[nH]c3ccccc23)NC(=O)[C@H](CCCNC(=N)N)NC1=O [Compound 92] ({CH2CO}-S[2Nal]ISGKDW[Nle]RWVC-NH2; thioether N-13) | 15.5 nM | – |
| CC(C)[C@@H]1NC(=O)[C@H](Cc2c[nH]c3ccccc23)NC(=O)[C@H](C(C)C)NC(=O)[C@H](C(C)C)NC(=O)[C@H](Cc2c[nH]c3ccccc23)NC(=O)[C@H](CC(=O)O)NC(=O)[C@H](CCCCN)NC(=O)CNC(=O)[C@H](CO)NC(=O)[C@H](CCCNC(=N)N)NC(=O)[C@H](Cc2ccc3ccccc3c2)NC(=O)CSC[C@@H](C(N)=O)NC1=O [Compound 99] ({CH2CO}-[2Nal]RSGKDWVVWVC-NH2; thioether N-12) | 14.2 nM | – |
| CCCC[C@@H]1NC(=O)[C@H](Cc2c[nH]c3ccccc23)NC(=O)[C@H](CC(N)=O)NC(=O)[C@H](Cc2c[nH]cn2)NC(=O)CNC(=O)[C@H](CO)NC(=O)[C@H](CCCNC(=N)N)NC(=O)[C@H](Cc2ccc3ccccc3c2)NC(=O)CSC[C@@H](C(N)=O)NC(=O)[C@H](C(C)C)NC(=O)[C@H](Cc2c[nH]c3ccccc23)NC(=O)[C@H](C(C)C)NC1=O [Compound 100] ({CH2CO}-[2Nal]RSGHNW[Nle]VWVC-NH2; thioether N-12) | 19.5 nM | – |
| CCCC[C@@H]1NC(=O)[C@H](Cc2c[nH]c3ccccc23)NC(=O)[C@H](CC(=O)O)NC(=O)[C@H](Cc2c[nH]cn2)NC(=O)CNC(=O)[C@H](CO)NC(=O)[C@H](CCCNC(=N)N)NC(=O)[C@H](Cc2ccc3ccccc3c2)NC(=O)CSC[C@@H](C(N)=O)NC(=O)[C@H](C(C)C)NC(=O)[C@H](Cc2c[nH]c3ccccc23)NC(=O)[C@H](C(C)C)NC1=O [Compound 101] ({CH2CO}-[2Nal]RSGHDW[Nle]VWVC-NH2; thioether N-12) | 19.6 nM | – |
